# Laboratory results as given in ChEMBL document CHEMBL6178010, “XPO1-Targeting Selective Inhibitors of Transcriptional Activation Suppress Graft-versus-Host Disease” (J Med Chem, 2025).
# pEC50: −log10 of the molar value. The source made the active and inactive calls. No cut-off for these calls is given here.
# How the values were obtained:
# Exportin-1 [1] = biological target: T1, Exportin-1 (Homo sapiens, UniProt O14980); experiment: Inhibition of XPO1 in PMA/ionomycin-activated human Jurkat cells expressing IL-2 promoter reporter gene assessed as suppression of IL-2 transcriptional activity incubated for 6 hrs by Bright-Glo Luciferase assay; type: cell-based
# T1 sequence (O14980 whole entry): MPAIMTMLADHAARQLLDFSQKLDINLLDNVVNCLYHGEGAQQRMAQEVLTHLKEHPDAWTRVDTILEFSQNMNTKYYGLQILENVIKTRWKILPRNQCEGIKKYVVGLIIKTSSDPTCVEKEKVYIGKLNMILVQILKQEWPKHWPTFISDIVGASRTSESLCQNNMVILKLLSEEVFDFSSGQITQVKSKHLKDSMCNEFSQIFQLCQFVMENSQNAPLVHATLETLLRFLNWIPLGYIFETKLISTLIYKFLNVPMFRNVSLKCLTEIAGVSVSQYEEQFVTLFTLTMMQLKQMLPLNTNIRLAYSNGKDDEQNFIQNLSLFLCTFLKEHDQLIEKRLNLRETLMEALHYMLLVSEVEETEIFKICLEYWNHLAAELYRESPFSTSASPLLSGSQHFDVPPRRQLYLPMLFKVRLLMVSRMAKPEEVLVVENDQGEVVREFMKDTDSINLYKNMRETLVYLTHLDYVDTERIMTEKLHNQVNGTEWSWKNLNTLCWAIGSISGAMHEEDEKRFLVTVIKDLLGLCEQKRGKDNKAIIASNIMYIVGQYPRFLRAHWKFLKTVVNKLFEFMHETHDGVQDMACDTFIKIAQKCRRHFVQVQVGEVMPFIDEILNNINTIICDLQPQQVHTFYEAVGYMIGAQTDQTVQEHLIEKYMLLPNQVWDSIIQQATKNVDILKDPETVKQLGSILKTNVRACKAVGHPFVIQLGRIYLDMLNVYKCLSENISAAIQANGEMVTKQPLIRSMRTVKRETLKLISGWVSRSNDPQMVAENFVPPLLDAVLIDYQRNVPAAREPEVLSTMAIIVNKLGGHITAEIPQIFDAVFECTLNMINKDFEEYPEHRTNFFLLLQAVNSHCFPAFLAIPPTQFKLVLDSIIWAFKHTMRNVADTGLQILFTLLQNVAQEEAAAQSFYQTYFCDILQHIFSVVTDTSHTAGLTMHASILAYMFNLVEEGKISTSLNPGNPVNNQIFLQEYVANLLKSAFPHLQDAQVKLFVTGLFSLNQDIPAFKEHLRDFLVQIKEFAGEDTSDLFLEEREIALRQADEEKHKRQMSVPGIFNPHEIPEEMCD
# Jurkat [2] = experiment: Cytotoxicity against human Jurkat cells assessed as suppression of cell viability incubated for 24 hrs by CellTiter-Glo assay; type: functional, cell-based
# XPO1 = experiment: Selectivity ratio of EC50 for cytotoxicity against human Jurkat cells assessed as suppression of cell viability to EC50 for inhibition of XPO1 in PMA/ionomycin-activated human Jurkat cells expressing IL-2 promoter reporter gene assessed as suppression of IL-2 transcriptional activity; type: toxicity, cell-based; conditions: read-out: Ratio EC50
# Jurkat [3] = experiment: Downregulation of IL-2 mRNA level in PMA/ionomycin-activated human Jurkat cells expressing XPO1 C528S mutant at 10 nM incubated for 6 hrs by RT-qPCR analysis; type: functional, cell-based
# Jurkat [4] = experiment: Cytotoxicity against human Jurkat cells expressing XPO1 C528S mutant assessed as suppression of cell viability up to 100 nM incubated for 24 hrs by CellTiter-Glo assay; type: functional, cell-based
# [5] = Metabolic stability in mouse liver microsome assessed as half life; type: ADME; conditions: liver microsomes
# [6] = Metabolic stability in mouse liver microsome assessed as intrinsic clearance; type: ADME; conditions: liver microsomes, read-out: CLH
# Exportin-1 [7] = biological target: T1, Exportin-1; experiment: Inhibition of selinexor-alkyne binding to XPO1 at Cys528 in human Jurkat cells up to 10 nM pretreated for 1 hr followed by addition of selinexor-alkyne measured after 1 hr by In-gel fluorescence analysis; type: cell-based; conditions: time 2.0 hrs
# Exportin-1 [8] = biological target: T1, Exportin-1; experiment: Covalent binding affinity to XPO1 in human Jurkat cells at 0.6 to 123 nM by In-gel fluorescence analysis; type: cell-based; conditions: dose 0.6-123 nM
# [9] = biological target: Exportin-1 (Mus musculus) (UniProt Q6P5F9); experiment: In vivo binding affinity to XPO1 in mouse spleen at 10 mg/kg, ip qd administered for 5 days by Western blot analysis; type: functional, organism-based; conditions: time 5.0 day
# Chain of Exportin-1 (Mus musculus) (Q6P5F9 whole entry): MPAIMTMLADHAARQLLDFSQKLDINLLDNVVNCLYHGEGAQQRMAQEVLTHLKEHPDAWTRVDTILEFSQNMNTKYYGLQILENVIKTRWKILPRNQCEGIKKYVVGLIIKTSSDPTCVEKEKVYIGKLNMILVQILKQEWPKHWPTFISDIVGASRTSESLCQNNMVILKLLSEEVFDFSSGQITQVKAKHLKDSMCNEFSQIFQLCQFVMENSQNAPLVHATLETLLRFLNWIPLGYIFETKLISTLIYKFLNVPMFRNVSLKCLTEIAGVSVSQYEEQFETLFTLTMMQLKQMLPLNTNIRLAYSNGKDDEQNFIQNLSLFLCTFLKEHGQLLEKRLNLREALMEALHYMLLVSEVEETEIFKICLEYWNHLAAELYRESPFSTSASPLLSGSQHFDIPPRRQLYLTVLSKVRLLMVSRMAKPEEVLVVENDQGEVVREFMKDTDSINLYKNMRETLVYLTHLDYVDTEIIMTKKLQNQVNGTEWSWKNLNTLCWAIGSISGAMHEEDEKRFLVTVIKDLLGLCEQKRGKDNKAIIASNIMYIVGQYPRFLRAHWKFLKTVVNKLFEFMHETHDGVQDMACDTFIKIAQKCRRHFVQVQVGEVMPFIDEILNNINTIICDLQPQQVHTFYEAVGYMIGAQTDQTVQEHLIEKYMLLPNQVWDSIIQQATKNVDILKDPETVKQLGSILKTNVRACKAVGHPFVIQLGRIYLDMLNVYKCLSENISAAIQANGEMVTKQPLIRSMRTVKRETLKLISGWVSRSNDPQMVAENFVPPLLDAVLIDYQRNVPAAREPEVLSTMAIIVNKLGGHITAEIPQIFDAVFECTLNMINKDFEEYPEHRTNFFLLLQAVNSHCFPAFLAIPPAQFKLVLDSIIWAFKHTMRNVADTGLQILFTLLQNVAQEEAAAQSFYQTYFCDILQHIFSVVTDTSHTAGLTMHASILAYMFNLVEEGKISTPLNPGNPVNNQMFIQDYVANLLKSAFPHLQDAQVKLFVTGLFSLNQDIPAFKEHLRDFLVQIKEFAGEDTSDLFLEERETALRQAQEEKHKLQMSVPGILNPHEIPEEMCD
# [10] = biological target: Exportin-1 (Mus musculus) (UniProt Q6P5F9); experiment: In vivo binding affinity to XPO1 in mouse liver at 10 mg/kg, ip qd administered for 5 days by Western blot analysis; type: functional, organism-based; conditions: time 5.0 day
# [11] = biological target: Exportin-1 (Mus musculus) (UniProt Q6P5F9); experiment: In vivo binding affinity to XPO1 in mouse kidney at 10 mg/kg, ip qd administered for 5 days by Western blot analysis; type: functional, organism-based; conditions: time 5.0 day
# [12] = Toxicity in mouse assessed as neutropenia at 10 mg/kg, ip administered daily for 5 days by CBC analysis; type: organism-based; conditions: in vivo, 120 h, time 5 day
# [13] = Toxicity in mouse assessed as leukopenia at 10 mg/kg, ip administered daily for 5 days by CBC analysis; type: organism-based; conditions: in vivo, 120 h, time 5 day
# Mus musculus [14] = experiment: Anti-inflammatory activity in irradiated BALB/c mouse transplanted with bone marrow/splenic T-cells from C57BL/6 mouse assessed as reduction in animal lethality at 10 mg/kg, ip administered daily measured for 8 days; type: functional, organism-based; conditions: time 8.0 day
# Mus musculus [15] = experiment: Suppression of T-cell activation in irradiated BALB/c mouse transplanted with bone marrow/splenic T-cells from C57BL/6 mouse assessed as downregulation of IFNG in host spleen at 10 mg/kg, ip administered daily for 7 days by RT-qPCR analysis; type: functional, organism-based; conditions: time 7.0 day
# Mus musculus [16] = experiment: Suppression of T-cell activation in irradiated BALB/c mouse transplanted with bone marrow/splenic T-cells from C57BL/6 mouse assessed as downregulation of CSF2 in host spleen at 10 mg/kg, ip administered daily for 7 days by RT-qPCR analysis; type: functional, organism-based; conditions: time 7.0 day
# Mus musculus [17] = experiment: Anti-inflammatory activity in irradiated BALB/c mouse transplanted with bone marrow/splenic T-cells from C57BL/6 mouse assessed as suppression of CD3 positive T-cell infiltration in host liver at 10 mg/kg, ip qd administered daily for 7 days by IHC analysis; type: functional, organism-based; conditions: time 7.0 day
# Mus musculus [18] = experiment: Anti-inflammatory activity in irradiated BALB/c mouse transplanted with bone marrow/splenic T-cells from C57BL/6 mouse assessed as suppression of IFNG mRNA level in host spleen administered as ip dose for 7 days by RT-qPCR analysis; type: functional, organism-based; conditions: dose 10-100 mg/kg, time 7.0 day
# Mus musculus [19] = experiment: Anti-inflammatory activity in irradiated BALB/c mouse transplanted with bone marrow/splenic T-cells from C57BL/6 mouse assessed as suppression of CSF2 mRNA level in host spleen administered as ip dose for 7 days by RT-qPCR analysis; type: functional, organism-based; conditions: dose 10-100 mg/kg, time 7.0 day
# Mus musculus [20] = experiment: Anti-inflammatory activity in irradiated BALB/c mouse transplanted with bone marrow/splenic T-cells from C57BL/6 mouse assessed as increase in CD3 positive CD4 positive T cells in host spleen at 1 to 10 mg/kg, ip administered for 7 days by flow cytometry analysis; type: functional, organism-based; conditions: dose 1-10 mg/kg, time 7.0 day
# Mus musculus [21] = experiment: Anti-inflammatory activity in irradiated BALB/c mouse transplanted with bone marrow/splenic T-cells from C57BL/6 mouse assessed as decrease in CD3 positive CD8 positive T cells in host spleen at 1 to 10 mg/kg, ip administered for 7 days by flow cytometry analysis; type: functional, organism-based; conditions: dose 1-10 mg/kg, time 7.0 day
# Mus musculus [22] = experiment: Anti-inflammatory activity in irradiated BALB/c mouse transplanted with bone marrow/splenic T-cells from C57BL/6 mouse assessed as improvement in animal survival at 3 mg/kg, ip administered daily for 21 days; type: functional, organism-based; conditions: time 21.0 day
# Exportin-1 [23] = biological target: T1, Exportin-1; experiment: Inhibition of selinexor-alkyne binding to XPO1 at Cys528 in human Jurkat cells up to 300 nM pretreated for 1 hr followed by addition of selinexor-alkyne measured after 1 hr by In-gel fluorescence analysis; type: cell-based; conditions: time 2.0 hrs
# Jurkat [24] = experiment: Downregulation of IL-2 mRNA level in PMA/ionomycin-activated human Jurkat cells expressing XPO1 C528S mutant at 200 nM incubated for 6 hrs by RT-qPCR analysis; type: functional, cell-based
# Jurkat [25] = experiment: Cytotoxicity against human Jurkat cells expressing XPO1 C528S mutant assessed as suppression of cell viability up to 1000 nM incubated for 24 hrs by CellTiter-Glo assay; type: functional, cell-based
# [26] = Drug exposure in mouse administered intraperitoneally; type: ADME; conditions: in vivo, ip
# Mus musculus [27] = experiment: Anti-inflammatory activity in irradiated BALB/c mouse transplanted with bone marrow/splenic T-cells from C57BL/6 mouse assessed as suppression of CCL3 mRNA level in host spleen administered as ip dose for 7 days by RT-qPCR analysis; type: functional, organism-based; conditions: dose 10-100 mg/kg, time 7.0 day
# Mus musculus [28] = experiment: Anti-inflammatory activity in irradiated BALB/c mouse transplanted with bone marrow/splenic T-cells from C57BL/6 mouse assessed as suppression of TNF mRNA level in host spleen administered as ip dose for 7 days by RT-qPCR analysis; type: functional, organism-based; conditions: dose 10-100 mg/kg, time 7.0 day
# Mus musculus [29] = experiment: Anti-inflammatory activity in irradiated BALB/c mouse transplanted with bone marrow/splenic T-cells from C57BL/6 mouse assessed as healthy appearance of animal at 1 to 10 mg/kg, ip administered for 7 days; type: functional, organism-based; conditions: dose 1-10 mg/kg, time 7.0 day
# Mus musculus [30] = experiment: Anti-inflammatory activity in irradiated BALB/c mouse transplanted with bone marrow/splenic T-cells from C57BL/6 mouse assessed as active behaviour of animal at 1 to 10 mg/kg, ip administered for 7 days; type: functional, organism-based; conditions: dose 1-10 mg/kg, time 7.0 day
# [31] = Toxicity in irradiated BALB/c mouse transplanted with bone marrow/splenic T-cells from C57BL/6 mouse assessed as drug tolerance at 3 mg/kg, ip administered daily for 21 days; type: organism-based; conditions: in vivo, 504 h, time 21 day
# Jurkat [32] = experiment: Downregulation of IL-2 mRNA level in PMA/ionomycin-activated human Jurkat cells expressing XPO1 C528S mutant at 100 nM incubated for 6 hrs by RT-qPCR analysis; type: functional, cell-based
# Jurkat [33] = experiment: Cytotoxicity against human Jurkat cells expressing XPO1 C528S mutant assessed as suppression of cell viability up to 10000 nM incubated for 24 hrs by CellTiter-Glo assay; type: functional, cell-based
# Exportin-1 [34] = biological target: T1, Exportin-1; experiment: Covalent binding affinity to XPO1 in human Jurkat cells at 4 to 1000 nM by In-gel fluorescence analysis; type: cell-based; conditions: dose 4-1000 nM
# [35] = biological target: Exportin-1 (Mus musculus) (UniProt Q6P5F9); experiment: In vivo binding affinity to XPO1 in mouse spleen at 1 to 9 mg/kg, ip qd administered for 5 days by Western blot analysis; type: functional, organism-based; conditions: dose 1-9 mg/kg, time 5.0 day
# [36] = biological target: Exportin-1 (Mus musculus) (UniProt Q6P5F9); experiment: In vivo binding affinity to XPO1 in mouse liver at 1 to 9 mg/kg, ip qd administered for 5 days by Western blot analysis; type: functional, organism-based; conditions: dose 1-9 mg/kg, time 5.0 day
# [37] = biological target: Exportin-1 (Mus musculus) (UniProt Q6P5F9); experiment: In vivo binding affinity to XPO1 in mouse kidney at 1 to 9 mg/kg, ip qd administered for 5 days by Western blot analysis; type: functional, organism-based; conditions: dose 1-9 mg/kg, time 5.0 day
smiles,measurement,setting,value
CC1=CC(=O)N(Nc2ccc(C(F)(F)F)c(N3CC4CC4C3)n2)C1=O (stereo unspecified),pEC50,Exportin-1 [1],9.00
same,pEC50,Jurkat [2],7.52
same,selectivity ratio,XPO1,30.4
same,Activity,Jurkat [3],inactive
same,Activity,Jurkat [4],Active
same,half-life,[5],< 10 min
same,microsomal CLint,[6],> 139 µL/min/mg
same,inhibition,Exportin-1 [7],Active
C#Cc1cc(NN2C(=O)C=C(C)C2=O)cc(C(F)(F)F)c1,Activity,Exportin-1 [8],Active
same,Activity,[9],Active
same,Activity,[10],Active
same,Activity,[11],Active
O=C(/C=C\n1cnc(-c2cc(C(F)(F)F)cc(C(F)(F)F)c2)n1)NNc1cnccn1 [SELINEXOR],Activity,[12],Toxic
same,Activity,[13],Toxic
same,Activity,Mus musculus [14],inactive
CC1=CC(=O)N(Nc2nc(C(F)(F)F)nn3cccc23)C1=O,pEC50,Exportin-1 [1],7.51
same,pEC50,Jurkat [2],6.57
same,selectivity ratio,XPO1,8.7
same,half-life,[5],> 60 min
same,microsomal CLint,[6],< 23 µL/min/mg
same,Activity,Mus musculus [15],Active; Compound Showed Stronger Effect Than Sp100030
same,Activity,Mus musculus [16],Active; Compound Showed Stronger Effect Than Sp100030
same,Activity,Mus musculus [17],Active
same,Activity,Mus musculus [18],Dose-dependent-effect
same,Activity,Mus musculus [19],Dose-dependent-effect
same,Activity,Mus musculus [20],Active
same,Activity,Mus musculus [21],Active
same,Activity,Mus musculus [22],Active
same,Activity,[12],Non-toxic
same,Activity,[13],Non-toxic
same,inhibition,Exportin-1 [23],Active
same,Activity,Jurkat [24],inactive
same,Activity,Jurkat [25],inactive
same,Drug uptake,[26],Active
same,Activity,Mus musculus [27],Dose-dependent-effect
same,Activity,Mus musculus [28],Dose-dependent-effect
same,Activity,Mus musculus [29],Active
same,Activity,Mus musculus [30],Active
same,Activity,[31],Non-toxic
CC1=CC(=O)N(Nc2nc(N3CCCC3)nn3cccc23)C1=O,pEC50,Exportin-1 [1],7.47
same,pEC50,Jurkat [2],6.62
same,selectivity ratio,XPO1,7.1
same,Activity,Jurkat [32],inactive
same,half-life,[5],> 60 min
same,microsomal CLint,[6],< 23 µL/min/mg
same,inhibition,Exportin-1 [23],Active
same,Activity,Jurkat [25],inactive
same,Drug uptake,[26],Active
CC1=CC(=O)N(Nc2ccc(C(F)(F)F)c(N(C)C)n2)C1=O,pEC50,Exportin-1 [1],8.08
same,pEC50,Jurkat [2],6.16
same,selectivity ratio,XPO1,83.9
same,Activity,Jurkat [32],inactive
same,Activity,Jurkat [33],Active
same,inhibition,Exportin-1 [7],Active
CC1=CC(=O)N(N(C)c2nc(N(C)CC3CC3)nn3cccc23)C1=O,pEC50,Exportin-1 [1],7.54
same,pEC50,Jurkat [2],6.73
same,selectivity ratio,XPO1,6.4
same,half-life,[5],8.5 min
same,microsomal CLint,[6],163 µL/min/mg
C#Cc1cc2c(NN3C(=O)C=C(C)C3=O)nc(C(F)(F)F)nn2c1,Activity,Exportin-1 [34],Active
same,Activity,[35],Active
same,Activity,[36],Active
same,Activity,[37],Active
CC1=CC(=O)N(Nc2cc(C(F)(F)F)cc(C(F)(F)F)c2)C1=O,half-life,[5],> 60 min
same,microsomal CLint,[6],< 23 µL/min/mg
same,Activity,Mus musculus [15],Active; Compound Showed Stronger Effect Than Sp100030
same,Activity,Mus musculus [16],Active; Compound Showed Stronger Effect Than Sp100030
same,Activity,Mus musculus [17],Active
same,Activity,[12],Non-toxic
same,Activity,[13],Non-toxic
same,Drug uptake,[26],Active
CC1=CC(=O)N(Nc2ccc(C(F)(F)F)c(N3CCC3)n2)C1=O,pEC50,Exportin-1 [1],7.96
same,pEC50,Jurkat [2],6.36
same,selectivity ratio,XPO1,39.5
same,half-life,[5],< 10 min
same,microsomal CLint,[6],> 139 µL/min/mg
